We go through 36 molecules from ChEMBL document CHEMBL4177592, “Discovery of renin inhibitors containing a simple aspartate binding moiety that imparts reduced P450 inhibition” (Bioorg Med Chem Lett, 2017).

Usually IC50 stands for the concentration that gives 50% inhibition.

Assay [1] concerns the target Cytochrome P450 3A4 (Homo sapiens, UniProt P08684). The assay can be described thus: Inhibition of human CYP3A4 expressed in Escherichia coli co-expressing CYP-reductase using diethoxyfluorescein as substrate measured after 10 mins by fluorescence assay.
Assay [2] deals with T1, Renin (Homo sapiens, UniProt P00797).
T1 sequence (P00797 whole entry): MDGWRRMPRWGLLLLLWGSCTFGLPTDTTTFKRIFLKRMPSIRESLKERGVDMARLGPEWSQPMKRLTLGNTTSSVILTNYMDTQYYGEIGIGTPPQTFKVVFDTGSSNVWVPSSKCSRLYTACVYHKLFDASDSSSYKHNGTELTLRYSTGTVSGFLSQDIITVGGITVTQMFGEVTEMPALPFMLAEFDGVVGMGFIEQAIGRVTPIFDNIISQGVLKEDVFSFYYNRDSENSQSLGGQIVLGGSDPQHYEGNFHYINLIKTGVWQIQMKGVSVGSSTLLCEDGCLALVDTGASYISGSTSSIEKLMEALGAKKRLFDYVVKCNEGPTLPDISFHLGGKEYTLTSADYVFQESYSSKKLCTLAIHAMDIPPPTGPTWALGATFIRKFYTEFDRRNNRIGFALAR
Description: Inhibition of renin in human plasma using angiotensinogen as substrate measured for 90 mins by [125I]-angiotensin based radioimmunoassay.

Assay [3] deals with T1, Renin. Description: Inhibition of trypsin-activated recombinant human Fc-tagged renin expressed in BacMam virus infected HEK-F cells using Arg-Glu-Lys(5-Fam)-Ile-His-Pro-Phe-His-Leu-Val-IleHis-Thr-Lys(5,6 Tamra)-Arg-CONH2 as substrate measured after 2 hrs.

Sequence of Cytochrome P450 3A4 (P08684 whole entry): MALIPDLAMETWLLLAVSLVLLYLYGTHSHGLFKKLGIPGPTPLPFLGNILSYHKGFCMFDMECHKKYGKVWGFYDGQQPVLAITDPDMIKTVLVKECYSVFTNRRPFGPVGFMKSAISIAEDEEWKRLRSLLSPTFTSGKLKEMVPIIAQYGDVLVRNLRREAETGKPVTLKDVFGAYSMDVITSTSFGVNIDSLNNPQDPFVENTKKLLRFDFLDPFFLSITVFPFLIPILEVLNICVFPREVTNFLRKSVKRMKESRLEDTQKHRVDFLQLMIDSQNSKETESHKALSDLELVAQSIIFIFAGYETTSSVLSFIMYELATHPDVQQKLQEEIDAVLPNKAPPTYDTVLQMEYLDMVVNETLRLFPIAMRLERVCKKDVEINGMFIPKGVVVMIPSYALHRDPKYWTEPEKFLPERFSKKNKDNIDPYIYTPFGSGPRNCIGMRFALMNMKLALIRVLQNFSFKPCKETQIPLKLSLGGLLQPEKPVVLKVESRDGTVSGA

As for `CCc1cccc(-c2c(F)cccc2C(O)(CCCNC(=O)OC)[C@@H]2CCCN(C(=O)CCCN)C2)c1` (some centres undefined), the IC50 is 240 nM in assay [1], 13 nM in assay [2] and 1 nM in assay [3].
As to `CCc1cccc(-c2c(F)cccc2C(O)(CCCNC(=O)OC)[C@@H]2CCCN(C(=O)CCCNCCO)C2)c1` (some centres undefined), the IC50 in assay [2] was 63 nM; in assay [3], 2.5 nM.
For `CCc1cccc(-c2c(F)cccc2C(O)(CCCNC(=O)OC)[C@@H]2CCCN(C(=O)[C@@H]3CC[C@H](N)C3)C2)c1` (some centres undefined), the results for the IC50 in assay [1], in assay [2] and in assay [3] were 90 nM, 3.3 nM and 0.6 nM, respectively.
Turning to `CCc1cccc(-c2c(F)cccc2C(O)(CCCNC(=O)OC)[C@@H]2CCCN(C(=O)[C@@H](O)CCN)C2)c1` (some centres undefined), the values for the IC50 in assay [2] and in assay [3] were 840 nM and 40 nM, respectively.
The corresponding values for `CCc1cccc(-c2c(F)cccc2C(O)(CCCNC(=O)OC)[C@@H]2CCCN(C(=O)CC[C@H](N)CO)C2)c1` (some centres undefined) are 460 nM and 20 nM.
Take `CCc1cccc(-c2c(F)cccc2C(O)(CCCNC(=O)OC)[C@@H]2CCCN(C(=O)CC3CCCN3)C2)c1` (some centres undefined): the IC50 in assay [3] is 800 nM.
As for `CCc1cccc(-c2c(Cl)cccc2C(O)(CCCNC(=O)OC)[C@@H]2CCCN(C(=O)[C@@H]3CC[C@H](NC)C3)C2)c1` (some centres undefined), the figures for the IC50 in assay [1], in assay [2] and in assay [3] were 49 nM, 4.3 nM and 0.6 nM, respectively.
As for `CCc1cccc(-c2c(F)cccc2C(O)(CCCNC(=O)OC)[C@@H]2CCCN(C(=O)CC[C@H](N)C(=O)O)C2)c1` (some centres undefined), the IC50 in assay [3] is 320 nM.
In the case of `CCc1cccc(-c2c(F)cccc2C(O)(CCCNC(=O)OC)[C@@H]2CCCN(C(=O)CC[C@H](N)C(=O)OC)C2)c1` (some centres undefined), the IC50 in assay [2] is 540 nM; in assay [3], 25 nM.
As for `CCc1cccc(-c2c(F)cccc2C(O)(CCCNC(=O)OC)[C@@H]2CCCN(C(=O)C3CCCNC3)C2)c1` (some centres undefined), the IC50 in assay [3] was found to be 320 nM.
Turning to `CCc1cccc(-c2c(F)cccc2C(O)(CCCNC(=O)OC)[C@@H]2CCCN(C(=O)CN)C2)c1` (some centres undefined), the IC50 stood at 3800 nM in assay [2] and 63 nM in assay [3].
The corresponding values for `CCc1cccc(-c2c(F)cccc2C(O)(CCCNC(=O)OC)[C@@H]2CCCN(C(=O)C3CCNC3)C2)c1` (some centres undefined) are 540 nM and 25 nM.
The corresponding values for `CCc1cccc(-c2c(F)cccc2C(O)(CCCNC(=O)OC)[C@@H]2CCCN(C(=O)NCCN)C2)c1` (some centres undefined) are 150 nM and 3.2 nM.
For `CCc1cccc(-c2c(Cl)cccc2C(O)(CCCNC(=O)OC)[C@@H]2CCCN(C(=O)[C@H]3C[C@@H](N)[C@@H](O)C3)C2)c1` (some centres undefined), the IC50 in assay [1] was determined as 250 nM; in assay [2] it was 1.8 nM; in assay [3], 0.3 nM.
For the molecule `CCc1cccc(-c2c(F)cccc2C(O)(CCCNC(=O)OC)[C@@H]2CCCN(C(=O)CC(CNC)OC)C2)c1` (some centres undefined), the values for the IC50 in assay [2] and in assay [3] were 50 nM and 5 nM, respectively.
`CCc1cccc(-c2c(Cl)cccc2C(O)(CCCNC(=O)OC)[C@@H]2CCCN(C(=O)CCCNC)C2)c1` (some centres undefined): the results for the IC50 in assay [1], in assay [2] and in assay [3] were 140 nM, 16 nM and 1 nM, respectively.
Turning to `CCc1cccc(-c2c(F)cccc2C(O)(CCCNC(=O)OC)[C@@H]2CCCN(C(=O)CC3CCNCC3)C2)c1` (some centres undefined), the IC50 in assay [2] is 23 nM; in assay [3] it was 1.6 nM.
The corresponding values for `CCc1cccc(-c2c(F)cccc2C(O)(CCCNC(=O)OC)[C@@H]2CCCN(C(=O)CC3CCCNC3)C2)c1` (some centres undefined) are 40 nM and 2 nM.
With `CCc1cccc(-c2c(F)cccc2C(O)(CCCNC(=O)OC)[C@@H]2CCCN(C(=O)CCN)C2)c1` (some centres undefined), in assay [3], the IC50 was 100 nM.
With `CCc1cccc(-c2c(F)cccc2C(O)(CCCNC(=O)OC)[C@@H]2CCCN(C(=O)CC(O)CNC)C2)c1` (some centres undefined), the IC50 stood at 840 nM in assay [1], 29 nM in assay [2] and 2 nM in assay [3].
As to `CCc1cccc(-c2c(F)cccc2C(O)(CCCNC(=O)OC)[C@@H]2CCCN(C(=O)C[C@H](O)CN)C2)c1` (some centres undefined), the concentration for half-maximal inhibition (IC50) in assay [3] came out at 1.3 nM.
In the case of `CCc1cccc(-c2c(F)cccc2C(O)(CCCNC(=O)OC)[C@@H]2CCCN(C(=O)C3CCNCC3)C2)c1` (some centres undefined), the IC50 worked out at 102 nM in assay [2] and 6.3 nM in assay [3].
Regarding `CCc1cccc(-c2c(F)cccc2C(O)(CCCNC(=O)OC)[C@@H]2CCCN(C(=O)C3CNCCO3)C2)c1` (some centres undefined), the IC50 in assay [3] was 1000 nM.
On the same count and under the same terms, the value for `CCc1cccc(-c2c(F)cccc2C(O)(CCCNC(=O)OC)[C@@H]2CCCN(C(=O)CCCN(C)C)C2)c1` (some centres undefined) was 630 nM.
The same measure, in the same setting: the value for `CCc1cccc(-c2c(F)cccc2C(O)(CCCNC(=O)OC)[C@@H]2CCCN(C(=O)C3CCCCN3)C2)c1` (some centres undefined) was 2000 nM.
`CCc1cccc(-c2c(F)cccc2C(O)(CCCNC(=O)OC)[C@@H]2CCCN(C(=O)CC[C@H](N)C(=O)OCc3ccccc3)C2)c1` (some centres undefined): the IC50 stood at 450 nM in assay [2] and 16 nM in assay [3].
`CCc1cccc(-c2c(Cl)cccc2C(O)(CCCNC(=O)OC)[C@@H]2CCCN(C(=O)[C@@H]3CC[C@H](N)C3)C2)c1` (some centres undefined): the IC50 is 34 nM in assay [1], 8.4 nM in assay [2] and 3.1 nM in assay [3].
With `CCc1cccc(-c2c(F)cccc2C(O)(CCCNC(=O)OC)[C@@H]2CCCN(C(=O)CCC3CCCCN3)C2)c1` (some centres undefined), the IC50 in assay [3] worked out at 126 nM.
With `CCc1cccc(-c2c(F)cccc2C(O)(CCCNC(=O)OC)[C@@H]2CCCN(C(=O)CCCCCN)C2)c1` (some centres undefined), the results for the IC50 in assay [2] and in assay [3] were 100 nM and 3.2 nM, respectively.
The corresponding values for `CCc1cccc(-c2c(F)cccc2C(O)(CCCNC(=O)OC)[C@@H]2CCCN(C(=O)CC[C@@H](N)CO)C2)c1` (some centres undefined) are 180 nM and 6.3 nM.
`CCc1cccc(-c2c(F)cccc2C(O)(CCCNC(=O)OC)[C@@H]2CCCN(C(=O)CC(O)CN)C2)c1` (some centres undefined): the IC50 stood at 440 nM in assay [1], 36 nM in assay [2] and 2 nM in assay [3].
Turning to `CCc1cccc(-c2c(F)cccc2C(O)(CCCNC(=O)OC)[C@@H]2CCCN(C(=O)CCCCN)C2)c1` (some centres undefined), the results for the IC50 in assay [2] and in assay [3] were 120 nM and 2 nM, respectively.
As for `CCc1cccc(-c2c(F)cccc2C(O)(CCCNC(=O)OC)[C@@H]2CCCN(C(=O)CCC3CCNCC3)C2)c1` (some centres undefined), the IC50 in assay [3] is 80 nM.
Turning to `CCc1cccc(-c2c(F)cccc2C(O)(CCCNC(=O)OC)[C@@H]2CCCN(C(=O)NCCNC)C2)c1` (some centres undefined), the IC50 in assay [2] is 120 nM; in assay [3], 6.3 nM.
The corresponding values for `CCc1cccc(-c2c(F)cccc2C(O)(CCCNC(=O)OC)[C@@H]2CCCN(C(=O)CC3CNCCO3)C2)c1` (some centres undefined) are 24 nM and 1.6 nM.
For `CCc1cccc(-c2c(F)cccc2C(O)(CCCNC(=O)OC)[C@@H]2CCCN(C(=O)CC[C@H](N)C(N)=O)C2)c1` (some centres undefined), the IC50 in assay [3] stood at 630 nM.
